Earlier results, collected in publication PMC7862507, “Adrenomedullin for steroid-resistant ulcerative colitis: a randomized, double-blind, placebo-controlled phase-2a clinical trial” (Journal of Gastroenterology, 2020).

System: steroid-resistant UC
Conditions: 9 ng/kg/min of AM; real dose might have been higher (1.4-fold dose of bulk powder used); cited from earlier work
Excerpt: A high rate of the placebo effect has been reported in a previous trial for UC [1–3]. High response rates in the placebo group have occasionally obstructed the successful accomplishment of clinical trials for active UC [19]. In this trial, we were concerned about the major impact from the placebo effect because attending patients received hospitalization and bed rest for 2 weeks. Figure 2 illustrates the changes in clinical indexes and fecal markers of each patient at 2 weeks.

Q: Which “improvement in steroid-resistant UC” value does the source give for `CC[C@H](C)[C@H](NC(=O)[C@H](CCC(N)=O)NC(=O)[C@H](Cc1c[nH]cn1)NC(=O)[C@H](C)NC(=O)[C@H](CC(C)C)NC(=O)[C@H](CCCCN)NC(=O)[C@H](CCC(N)=O)NC(=O)[C@@H](NC(=O)[C@@H](NC(=O)[C@@H]1CSSC[C@H](NC(=O)CNC(=O)[C@H](Cc2ccccc2)NC(=O)[C@H](CO)NC(=O)[C@H](CCCNC(=N)N)NC(=O)[C@H](CC(C)C)NC(=O)CNC(=O)[C@H](CCC(N)=O)NC(=O)[C@H](Cc2ccccc2)NC(=O)[C@H](CC(N)=O)NC(=O)[C@H](CC(N)=O)NC(=O)[C@H](CCSC)NC(=O)[C@H](CO)NC(=O)[C@H](CCC(N)=O)NC(=O)[C@H](CCCNC(=N)N)NC(=O)[C@@H](N)Cc2ccc(O)cc2)C(=O)N[C@@H](CCCNC(=N)N)C(=O)N[C@@H](Cc2ccccc2)C(=O)NCC(=O)N[C@@H]([C@@H](C)O)C(=O)N1)[C@@H](C)O)C(C)C)C(=O)N[C@@H](Cc1ccc(O)cc1)C(=O)N[C@@H](CCC(N)=O)C(=O)N[C@@H](Cc1ccccc1)C(=O)N[C@H](C(=O)N[C@@H](CC(=O)O)C(=O)N[C@@H](CCCCN)C(=O)N[C@@H](CC(=O)O)C(=O)N[C@@H](CCCCN)C(=O)N[C@@H](CC(=O)O)C(=O)N[C@@H](CC(N)=O)C(=O)N[C@H](C(=O)N[C@@H](C)C(=O)N1CCC[C@H]1C(=O)N[C@@H](CCCNC(=N)N)C(=O)N[C@@H](CO)C(=O)N[C@@H](CCCCN)C(=O)N[C@H](C(=O)N[C@@H](CO)C(=O)N1CCC[C@H]1C(=O)N[C@@H](CCC(N)=O)C(=O)NCC(=O)N[C@@H](Cc1ccc(O)cc1)C(N)=O)[C@@H](C)CC)C(C)C)[C@@H](C)O` [Adrenomedullin] here?
A: Its value is “significant improvement”.
